Assays:
[1] = Determination of galactose kinetics in whole blood after oral galactose; format: in vivo, human; settings: healthy volunteer, oral 0.3 g of galactose per kilogram of body weight in 250 ml water
Protocol: (§1) Galactose powder was supplied by Falcento. Galactose levels in whole blood were determined in a healthy volunteer after the oral consumption of 250 ml of water in which 0.3 g of galactose per kilogram of body weight had been dissolved. Measurements of galactose levels in blood were made by means of spectrophotometry at intervals of 10 minutes during the first hour and at intervals of 30 minutes for an additional 3 hours. Lactose or galactose supplementation was administered as an aqueous solution at a dose of 0.5 to 1.0 g per kilogram per day, divided into three to six daily doses (on the basis of patient preference).
Enzymatic determination of galactose levels in whole blood was performed using exogenous galactose dehydrogenase (galactose + NAD^+ → galactono-1,4-lactone + NADH + H^+). Galactose levels were determined in a healthy control after oral consumption of 0.3 g galactose (falcento AG, Kreuzlingen, Switzerland) per kilogram body weight dissolved in 250 ml water. Measurements of galactose levels were made at intervals of 10 minutes during the first hour and at intervals of 30 minutes for additional three hours.
3000 µl of galactose buffer reagent (Instruchemie, Delfzijl, Netherlands), 100 µl of galactose NAD reagent (Instruchemie) and 200 µl of a diluted calibrator (Instruchemie) were mixed and the absorbance against distilled water was read at a temperature of 25 °C and a wavelength of 340 nm (optical density 1).
500 µl of each whole blood sample were added to 1000 µl perchloric acid (0.33 mol/l) for deproteinization and then centrifuged. 200 µl of the supernatant were added to 3000 µl galactose buffer reagent, 100 µl galactose NAD reagent and absorbance was read (optical density 1). After supplementation of 20 µl galactose start reagent and incubation at 25 °C for 15 min, the optical density 2 was measured in both, the calibrator and blood samples.
For manual calculation of the galactose concentration the following formula was used: galactose(mmol/l) = (ΔO.D.controlorsample)/(ΔO.D.calibrator) × concentrationofcalibrator [formula]

[2] = system: PGM1-deficient fibroblasts; assay: Assay for cellular glycosylation efficiency using modified GFP (Glyc-ER-GFP); format: cell-based, human; settings: fibroblasts from patients, galactose alone added to culture medium
Protocol: (§2) Analysis of transferrin glycosylation was performed on serum samples with the use of isoelectric focusing, (3,4) sodium dodecyl sulfate-polyacrylamide-gel electrophoresis (SDS-PAGE), (3) or liquid chromatography-mass spectrometry (9) (Fig. 3, and the Examples II). […] Green fluorescent protein engineered for retention in the endoplasmic reticulum was modified to contain an N-glycosylation site that, when glycosylated, causes loss of fluorescence (Glyc-ER-GFP). (11) Glyc-ER-GFP was transfected into patient fibroblasts in culture, and fluorescence was measured by means of quantitative microscopy (see the Examples II).
Glycosylation efficiency was measured using Glyc-ER-GFP constructs as described.^11 In brief, cells were seeded in a 96 wells-plate at 40% confluence. 24h later, they were incubated in medium without or with addition of supplements (e.g. 0-1 mM galactose +/-100µM uridine) for 2 days with medium replacement every day. Cells were then transfected by the Glyc-ER-GFP and maintained in the same culture media for two more days. Cells were fixed using 4% paraformaldehyde/4% sucrose and stained by Hoechst 33342 (Thermo scientific). Plates were analyzed using a high-content microscope, IN Cell 1000 (GE Healthcare), and data were analyzed with the CytoSeer software (Vala Sciences) using a protein mask.

[3] = system: total serum N-glycome; assay: Dietary supplementation in patients: total serum N-glycome by capillary electrophoresis; format: in vivo, human; settings: patients with galactose supplementation
Source text: • Figure 1. Glycoprotein Biosynthesis and Congenital Disorders of Glycosylation. For the N-glycosylation of proteins, a glycan precursor is assembled from monosaccharide units on an anchoring isoprenoid alcohol, dolichol, in the membrane of the endoplasmic reticulum. Each glycan precursor is then transferred en bloc to a specific asparagine residue in the nascent peptide chain of a protein being synthesized by a ribosome and entering the endoplasmic reticulum. Because transferrin (brown line) is abundant in blood, it is used as an indicator of the efficiency of the glycosylation system. Transferrin has two glycosylation sites. The protein is transported to the Golgi apparatus, and the glycans are modified in multiple steps. Each fully modified glycan is terminated with two negatively charged sialic acid residues. Thus, the transferrin molecule carries a total of four sialic acid residues. If a genetic defect impairs synthesis of the precursor glycan in the endoplasmic reticulum, one or both glycosylation sites of transferrin may remain unoccupied (white arrow). Such defects are classified as congenital disorders of glycosylation type I (CDG-I). […] CDG-I defects are easily identified owing to the occurrence of transferrin isoforms with two or no sialic acid residues detected by means of IEF. […]

[4] = Dietary supplementation in patients: hormones and clinical course; format: in vivo, human; settings: for levels of luteinizing hormone, increased by a factor of: initially 2.5th percentile
Protocol: as §1

[5] = system: transferrin; assay: Dietary supplementation in patients: transferrin glycosylation; format: in vivo, human; settings: for transferrin glycosylation by mass spectrometry: six patients, 0.5 to 1.0 g per kilogram per day, within 2 weeks
Protocol: as §2, §1
For high-resolution mass spectrometry of transferrin (Fig. 3), a 5 µl serum sample was incubated with anti-transferrin beads as described.^8 The eluate was analyzed on a microfluidic 6540 LC-chip-QTOF instrument (Agilent Technologies) using a C8 protein chip. Data analysis was performed using Agilent Mass Hunter Qualitative Analysis Software B.04.00. The Agilent BioConfirm Software was used to deconvolute the charge distribution of raw data to reconstructed mass data. For confirmation of the structural annotations, samples were processed for analysis of tryptic transferrin peptides by MALDI-TOF as described^9 (results not shown).

[6] = system: skin fibroblasts; assay: Evaluation of glycogen by electron microscopy in fibroblasts; format: cell-based, human; settings: 5.5 mM sugar in medium, 50 h
Protocol: For electron microscopy, skin fibroblasts of patients and controls were cultured to a confluence of 50 to 70% in M199 medium (Life Technologies) supplemented with 10% fetal calf serum and 1% penicillin/streptomycin in a humidified atmosphere containing 5% CO2 at 37°C. Cells were switched to a medium consisting of DMEM supplemented with 4mM L-glutamine (Invitrogen), 10% dialyzed FCS (Gibco), 1mM uridine (Calbiochem), and either 5.5 mM D-glucose (Sigma), or 5.5 mM D-Galactose (Merck). After 50 h of incubation, cells were centrifuged for 10 min at 1000rpm and fixed by gentle addition of 2% glutaraldehyde buffered with 0.1 M sodium cacodylate pH7.4 after removing the medium. After at least 4h fixation, the pellets were very carefully taken off and post-fixed in 1% osmium tetroxide in Palade buffer pH 7.4 with 1% potassium hexacyanoferrate(III)-trihydrate, and after dehydration in ethanol and propylene oxide, embedded in Epon for electron microscopy. Semithin 1µm thick transverse sections were stained with 1% Toluidine Blue. Ultrathin sections were stained with uranyl acetate and lead citrate and examined on a JEOL 1200 EX\II. […] Cells with small darkly staining aggregates of glycogen were counted as positive. Fibroblasts were prepared for evaluation of glycogen by electron microscopy as described above. The presence of glycogen in control and patient fibroblasts cultured in the presence of either glucose or galactose was assessed by electron microscopy. Cells (of 115-160 total) with small darkly staining aggregates of glycogen were counted as positive. Aggregates are typically more common in glycogen storage diseases (picture for hepatocytes s. Fig. 7, panel C, D).

[7] = Patients 2 and 6, after initiation of galactose treatment

Structure (SMILES) | plasma concentration of galactose, maximum [1] [µM] | time after which galactose decreased to baseline levels [1] [h] | time of maximum galactose concentration [1] [min] | glycosylation of Glyc-ER-GFP [2] | glycosylation of the total serum N-glycome [3] | levels of luteinizing hormone, increased by a factor of ([4]; Patient 2, after initiation of galactose supplementation) | levels of luteinizing hormone, increased by a factor of ([4]; Patient 6, after initiation of galactose supplementation) | hypogonadotropic hypogonadism ([4]; Patients 2 and 6, after initiation of galactose supplementation) | cardiac function [4, 7] | episodes of rhabdomyolysis [4, 7] | ultrasonography of the liver ([4]; Patients 2 and 6, every 3 months during galactose supplementation) | levels of follicle-stimulating hormone (FSH) ([4]; Patients 2 and 6, galactose supplementation) | tetrasialo-transferrin ([5]; Patient 1.1, daily 0.5 g per kg b.w. in 3 portions, doubled after one week, HPLC, within a few weeks, 50 before) [%] | transferrin glycosylation by mass spectrometry [5] | % of cells with glycogen aggregates ([6]; Control 1 fibroblasts) [%] | % of cells with glycogen aggregates ([6]; Control 2 fibroblasts) [%] | % of cells with glycogen aggregates ([6]; PGM1-6 patient fibroblasts) [%] | % of cells with glycogen aggregates ([6]; PGM1-7 patient fibroblasts) [%]
O=C[C@H](O)[C@@H](O)[C@@H](O)[C@H](O)CO [galactose] | 700 | 2 | 50 | substantially enhanced | substantial improvement | 5 | 10 | resolved within a few weeks | remained stable | no further episodes | no increase in echogenicity and no signs of cholestasis | normalized | 70 | improved substantially | 2 | 4 | <1 | <1
OC[C@H]1O[C@@H](O[C@H]2[C@H](O)[C@@H](O)C(O)O[C@@H]2CO)[C@H](O)[C@@H](O)[C@H]1O (stereo partly shown) [lactose] |  |  |  |  |  |  |  |  |  |  |  |  |  | improved substantially |  |  |  | 
